# In US10196482B2, “Mixed alkyl terminated polyether dendrons” (BASF SE, priority 2014, dated 2019):
# What was measured:
# [1] = Solubilization of actives in 3 wt-% polymer solution (high-throughput, UV/VIS); assay type: physicochemical
# Protocol: Solubilization measurements were carried out with a highthroughput screening robot. This set up dosed 10 mg solid active and […] of the respective 3 wt-% liquid polymer solution (in CIPAC water D) into wells on a micro titer plate. After the addition of stirring bars and 24 hours incubation time the samples were filtrated via polypropylene filters in order to separate dissolved active and its solid form ated. The amount of solubilized active was determined via UV/VIS spectroscopy.
# [2] = at 20° C.; cited from earlier work
# [3] = 10 mg solid active, without polymer or in 3 wt-% polymer solution in CIPAC water D, 24 hours
structure (smiles),measurement,setting,value
"CC(O)(Cn1cncn1)c1ccc(Oc2ccc(Cl)cc2)cc1C(F)(F)F (centres unmarked) [BAS 750 F, 2-[4-(4-chlorophenoxy)-2-(trifluoromethyl)phenyl]-1-(1H-1,2,4-triazol-1-yl)propan-2-ol]",Solubility of BAS 750 F,[1]; [3],15 pmm
"N#Cc1nn(-c2c(Cl)cc(C(F)(F)F)cc2Cl)c(N)c1[S+]([O-])C(F)(F)F (centres unmarked) [Fipronil, fipronil]",Solubility of fipronil,[1],12 pmm
NC(=O)N1c2ccccc2C=Cc2ccccc21 [carbamazepine],Solubility of carbamazepine,[1]; [3],181 pmm
Cn1cc(C(=O)Nc2ccccc2-c2cc(F)c(F)c(F)c2)c(C(F)F)n1 [fluxapyroxad],water solubility,[2],4 µg/mL
same,Solubility of fluxapyroxad,"[1]; 10 mg solid active, alone or in 3 wt-% polymer solution in CIPAC water D, 24 hours",10 pmm
